Reference: patent US20230373985A1 (Origenis Gmbh, priority 2020, published 2023)
Several values for one entry are separate records, joined by “and”; a condition that tells them apart may be missing. Equal values may be shown once.

Tests used:
[1] = biological target: T1, wt human JAK1, catalytic site (Homo sapiens, UniProt P23458); assay: HTRF KinEASE assay, JAK1; type: biochemical; details: 2.5 μM ATP; read-out: IC50, Activity Toward JAK1
T1 construct: wt human JAK1, catalytic site; purchased ThermoFisher
Experimental: Basic protocol for HTRF KinEASE assay (Cisbio/FRA) inhibitor studies involved two steps: • Enzymatic step: Addition of 4 μL of test compound in corresponding DMSO dilutions, 4 μL of kinase/substrate mixture, 2 μL of ATP into 384 well small volume plates. Incubation for at least 30 minutes at room temperature. • Detection step: Addition of 5 μL antibody and 5 μL streptavidin-XL665, read plate after 60 minutes. Data analysis of emission ratios according KinEASE assay protocol.
(§1) Kinase and assay components were adjusted to final concentrations according to kit protocol. For TYK2: 2 nM wt human TYK2, catalytic site (SignalChem/CAN), 1 μM HTRF KinEASE-TK Substrate-biotin, 1 μM ATP in 1× Kinase Buffer. […] For JAK2: 1 nM wt human JAK2, catalytic site (SignalChem/CAN), 1 μM HTRF KinEASE-TK Substrate-biotin, 100 μM ATP in 1× Kinase Buffer.
as §1

[2] = biological target: T2, wt human TYK2, catalytic site (Homo sapiens, UniProt P29597); assay: HTRF KinEASE assay, TYK2; type: biochemical; details: 1 μM ATP; read-out: IC50, Activity Toward TYK2
T2 construct: wt human TYK2, catalytic site; purchased SignalChem
T2 sequence (P29597 897-1176 limits assumed): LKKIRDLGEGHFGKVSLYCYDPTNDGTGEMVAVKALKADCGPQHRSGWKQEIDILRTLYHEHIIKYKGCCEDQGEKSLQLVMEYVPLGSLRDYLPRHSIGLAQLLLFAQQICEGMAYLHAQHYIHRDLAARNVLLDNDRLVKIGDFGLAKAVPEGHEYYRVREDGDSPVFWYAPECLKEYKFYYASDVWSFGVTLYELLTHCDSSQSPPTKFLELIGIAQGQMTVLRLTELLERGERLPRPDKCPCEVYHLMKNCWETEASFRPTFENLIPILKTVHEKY
Summary of the method: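 Kinase reaction run at room temperature for at least 30 min: 2 nM TYK2 with 1 μM ATP, or 1 nM JAK2 with 100 μM ATP, each with 1 μM biotin-TK substrate. Phosphorylation detected by HTRF (60 min antibody/XL665) and evaluated from emission ratios.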

T1 sequence (P23458 875-1153 limits assumed): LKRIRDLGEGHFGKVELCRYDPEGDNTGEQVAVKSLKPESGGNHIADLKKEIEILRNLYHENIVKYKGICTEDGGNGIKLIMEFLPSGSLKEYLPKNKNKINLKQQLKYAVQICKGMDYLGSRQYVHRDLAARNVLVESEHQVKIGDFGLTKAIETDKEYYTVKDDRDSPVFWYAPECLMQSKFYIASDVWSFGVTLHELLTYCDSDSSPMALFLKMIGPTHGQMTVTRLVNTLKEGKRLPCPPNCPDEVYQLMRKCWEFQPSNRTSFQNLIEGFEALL

| SMILES | IC50 [1] [nM] | IC50 [2] |
| --- | --- | --- |
| NC(=O)c1nn(-c2c(Cl)cccc2Cl)nc1Nc1ccc(C(=O)N2CC(F)(F)C(F)(F)C2)cn1 [compound 132, 2-(2,6-dichlorophenyl)-5-((5-(3,3,4,4-tetrafluoropyrrolidine-1-carbonyl)pyridin-2-yl)amino)-2H-1,2,3-triazole-4-carboxamide] | 100 to 1000 | 100 to 1000 nM |
| CN1CCN(C(=O)c2ccc(Nc3cn(-c4c(Cl)cccc4Cl)nc3C(N)=O)cn2)CC1 [compound 363, 1-(2,6-dichlorophenyl)-4-((6-(4-methylpiperazine-1-carbonyl)pyridin-3-yl)amino)-1H-pyrazole-3-carboxamide] | 100 to 1000 | 10 to 100 nM |
| NC(=O)c1nn(-c2c(Cl)cccc2Cl)cc1Nc1ccc(-n2ccccc2=O)nc1 [compound 390, 1-(2,6-dichlorophenyl)-4-((2-oxo-2H-[1,2′-bipyridin]-5′-yl)amino)-1H-pyrazole-3-carboxamide] | 100 to 1000 | 100 to 1000 nM |
| CC(C)(C)OC(=O)N1CCCC(NC(=O)c2ccc(Nc3cn(-c4c(Cl)cccc4Cl)nc3C(N)=O)cc2)C1 (stereo not shown) [compound 33, tert-butyl_3-(4-((3-carbamoyl-1-(2,6-dichlorophenyl)-1H-pyrazol-4-yl)amino)benzamido)piperidine-1-carboxylate] | 100 to 1000 | 100 to 1000 nM |
| NC(=O)c1nn(-c2c(Cl)cccc2Cl)cc1Nc1ccc(C(=O)N2CC[C@H](N)C2)nc1 [compound 357, (S)-4-((6-(3-aminopyrrolidine-1-carbonyl)pyridin-3-yl)amino)-1-(2,6-dichlorophenyl)-1H-pyrazole-3-carboxamide] | 100 to 1000 | 10 to 100 nM |
| CN(C)[C@H]1CCN(C(=O)c2ccc(Nc3cn(-c4c(Cl)cccc4Cl)nc3C(N)=O)nc2)C1 [compound 366, (S)-1-(2,6-dichlorophenyl)-4-((5-(3-(dimethylamino)pyrrolidine-1-carbonyl)pyridin-2-yl)amino)-1H-pyrazole-3-carboxamide] | 100 to 1000 | 10 to 100 nM |
| Cn1ccc(Oc2ccc(Nc3cn(-c4c(Cl)cccc4Cl)nc3C(N)=O)cc2)n1 [compound 78, 1-(2,6-dichlorophenyl)-4-((4-((1-methyl-1H-pyrazol-3-yl)oxy)phenyl)amino)-1H-pyrazole-3-carboxamide] | 100 to 1000 | 10 to 100 nM |
| NC(=O)c1nn(-c2c(Cl)cccc2Cl)cc1Nc1ccc(C(=O)N2CCN(C3CC3)CC2)cn1 [compound 383, 4-((5-(4-cyclopropylpiperazine-1-carbonyl)pyridin-2-yl)amino)-1-(2,6-dichlorophenyl)-1H-pyrazole-3-carboxamide] | 100 to 1000 | 10 to 100 nM and 100 to 1000 nM |
| NC(=O)c1nn(-c2c(Cl)cccc2Cl)nc1Nc1ccc(N2CCOCC2)cn1 [compound 143, 2-(2,6-dichlorophenyl)-5-((5-morpholinopyridin-2-yl)amino)-2H-1,2,3-triazole-4-carboxamide] | 100 to 1000 | 100 to 1000 nM |
| CC(C)(C)NC(=O)c1ccc(Nc2cn(-c3c(Cl)cccc3Cl)nc2C(N)=O)cc1F [compound 28, 4-((4-(tert-butylcarbamoyl)-3-fluorophenyl)amino)-1-(2,6-dichlorophenyl)-1H-pyrazole-3-carboxamide] | 100 to 1000 | 10 to 100 nM |
| NC(=O)c1nn(-c2c(Cl)cccc2Cl)cc1Nc1ccc(-n2nc(C(F)(F)F)nc2CO)cc1 [compound 371, 1-(2,6-dichlorophenyl)-4-((4-(5-(hydroxymethyl)-3-(trifluoromethyl)-1H-1,2,4-triazol-1-yl)phenyl)amino)-1H-pyrazole-3-carboxamide] | 100 to 1000 | < 10 nM |
| N#Cc1cccc(Cl)c1-n1cc(Nc2ccc(C(=O)N3CC[C@@H](F)C3)cc2)c(C(N)=O)n1 [compound 459, 1-(2-Chloro-6-cyano-phenyl)-4-[4-((R)-3-fluoro-pyrrolidine-1-carbonyl)-phenylamino]-1H-pyrazole-3-carboxylic acid amide] | 10 to 100 | < 10 nM |

Continued, values first:

| IC50 [1] [nM] | IC50 [2] | SMILES |
| --- | --- | --- |
| 10 to 100 | 100 to 1000 nM | CN1CCCN(C(=O)c2ccc(Nc3cn(-c4c(Cl)cccc4Cl)nc3C(N)=O)nc2)CC1 [compound 448, 1-(2,6-dichlorophenyl)-4-((5-(4-methyl-1,4-diazepane-1-carbonyl)pyridin-2-yl)amino)-1H-pyrazole-3-carboxamide] |
| 10 to 100 | < 10 nM | NC(=O)c1nn(-c2c(Cl)cccc2Cl)nc1Nc1ccc(C(=O)N2CCS(=O)(=O)CC2)cn1 [compound 160, 2-(2,6-dichlorophenyl)-5-((5-(1,1-dioxidothiomorpholine-4-carbonyl)pyridin-2-yl)amino)-2H-1,2,3-triazole-4-carboxamide] |
| < 10 | 10 to 100 nM | COCCNC(=O)c1ccc(Nc2nn(-c3c(Cl)cccc3Cl)nc2C(N)=O)cc1 [compound 123, 2-(2,6-dichlorophenyl)-5-((4-((2-methoxyethyl)carbamoyl)phenyl)amino)-2H-1,2,3-triazole-4-carboxamide] |
| < 10 | < 10 nM | N=S1(=O)CCN(C(=O)c2ccc(Nc3cn(-c4c(Cl)cccc4Cl)nc3C(N)=O)cc2)CC1 [compound 468, 1-(2,6-dichlorophenyl)-4-((4-(1-imino-1-oxidothiomorpholine-4-carbonyl)phenyl)amino)-1H-pyrazole-3-carboxamide] |
| 10 to 100 | < 10 nM | NC(=O)c1nn(-c2c(Cl)cccc2Cl)cc1Nc1ccc(C(=O)N2CCS(=O)(=O)CC2)nc1 [compound 463, 1-(2,6-dichlorophenyl)-4-((6-(1,1-dioxidothiomorpholine-4-carbonyl)pyridin-3-yl)amino)-1H-pyrazole-3-carboxamide] |
| 10 to 100 | 10 to 100 nM | CCn1cc(C(F)(F)F)nc1-c1ccc(Nc2cn(-c3c(Cl)cccc3Cl)nc2C(N)=O)cc1 [compound 293, 1-(2,6-dichlorophenyl)-4-((4-(1-ethyl-4-(trifluoromethyl)-1H-imidazol-2-yl)phenyl)amino)-1H-pyrazole-3-carboxamide] |
| < 10 | 10 to 100 nM | CCc1ccnn1-c1ccc(Nc2cn(-c3c(Cl)cccc3Cl)nc2C(N)=O)cc1 [compound 241, 1-(2,6-dichlorophenyl)-4-((4-(5-ethyl-1H-pyrazol-1-yl)phenyl)amino)-1H-pyrazole-3-carboxamide] |
| < 10 | 10 to 100 nM | NC(=O)c1nn(-c2c(Cl)cc(F)cc2Cl)nc1Nc1ccc(C(=O)N2CC[C@@H](F)C2)cc1 [compound 146, (R)-2-(2,6-dichloro-4-fluorophenyl)-5-((4-(3-fluoropyrrolidine-1-carbonyl)phenyl)amino)-2H-1,2,3-triazole-4-carboxamide] |
| 10 to 100 | 10 to 100 nM | NC(=O)c1nn(-c2c(Cl)cccc2Cl)cc1Nc1ccc(C(=O)N2CCOCC2)cn1 [compound 74, 1-(2,6-dichlorophenyl)-4-((5-(morpholine-4-carbonyl)pyridin-2-yl)amino)-1H-pyrazole-3-carboxamide] |
| 10 to 100 | 10 to 100 nM | NC(=O)c1nn(-c2c(Cl)cccc2Cl)cc1Nc1cnn(CC(=O)N2CCOCC2)c1 [compound 461, 1-(2,6-dichlorophenyl)-4-((1-(2-morpholino-2-oxoethyl)-1H-pyrazol-4-yl)amino)-1H-pyrazole-3-carboxamide] |
| 10 to 100 | 10 to 100 nM | N#CC1CN(C(=O)c2ccc(Nc3cn(-c4c(Cl)cccc4Cl)nc3C(N)=O)nc2)C1 [compound 444, 4-((5-(3-cyanoazetidine-1-carbonyl)pyridin-2-yl)amino)-1-(2,6-dichlorophenyl)-1H-pyrazole-3-carboxamide] |
| < 10 | < 10 nM | NC(=O)c1nn(-c2c(Cl)cc(F)cc2Cl)nc1Nc1ccc(C(=O)N2CCS(=O)(=O)CC2)cc1 [compound 175, 2-(2,6-dichloro-4-fluorophenyl)-5-((4-(1,1-dioxidothiomorpholine-4-carbonyl)phenyl)amino)-2H-1,2,3-triazole-4-carboxamide] |
| < 10 | 10 to 100 nM | CN(C)C1CCN(C(=O)c2ccc(Nc3nn(-c4c(Cl)cccc4Cl)nc3C(N)=O)nc2)CC1 [compound 149, 2-(2,6-dichlorophenyl)-5-((5-(4-(dimethylamino)piperidine-1-carbonyl)pyridin-2-yl)amino)-2H-1,2,3-triazole-4-carboxamide] |
| 10 to 100 | 10 to 100 nM | Cc1cnnn1-c1ccc(Nc2nn(-c3c(Cl)cccc3Cl)nc2C(N)=O)nc1 [compound 141, 2-(2,6-dichlorophenyl)-5-((5-(5-methyl-1H-1,2,3-triazol-1-yl)pyridin-2-yl)amino)-2H-1,2,3-triazole-4-carboxamide] |
